# Results from patent US20220401438A1, “CANCER THERAPEUTIC METHODS” (University Health Network, priority 2021, published 2022).
# Key:
# [1] = Tissue pharmacokinetic analyses (HPLC-MS/MS) of tumour biopsies; type: in vivo, human; conditions: for intratumor concentration (highest): patient HYDRA-005, DL1, on-treatment biopsy; for estimated tissue concentration: patient HYDRA-005 for Itra, assuming 1 μg of tissue corresponds to 1 μl; for detection in tumour biopsies: post-treatment samples, ten patients, none of the pre-treatment samples
# Protocol: Tumour assessment occurred every 8 weeks (+/−1 week) by CT scan. Toxicity was assessed by Common Terminology Criteria (CTCAE) version 4.0. Pre- and on treatment biopsies (on cycle 1, day 8 to 14) were mandatory. Tumour Itra and HCQ concentrations were determined by a HPLC-MS/MS method with itraconazole-D9 and hydroxychloroquine-D4 as the internal standard. The HPLC system was interfaced to a SCIEX TRIPLE QUAD 6500+ mass spectrometer operating in the […] electrospray ionization mode. Data collection, peak integration, and calculation were performed using Analyst® 1.7 software.
# [2] = test system: cancer cell lines not having gene mutations identified by the CRISPR screen analysis; assay: In vitro combination of itraconazole with lysosome targeting agents; type: cell-based; conditions: for sensitivity of cell lines to itraconazole when treated with the agent: cell lines without the CRISPR-identified mutations
# [3] = test system: TOV1946 stably expressing GFP conjugated TFEB; assay: TFEB nuclear translocation; type: cell-based; conditions: CQ 10 μM alone or with Itra 5 μM
# Protocol: FIGS. 11A-B. FIG. 11A) Top, analysis of lysosomal pattern by LAMP1 immunofluorescence and relative quantification in TOV21g treated with Itra 5 μM (15)+/−CQ 5 μM (CQ5). Bottom, Analysis of lysosomal function and relative quantification in TOV21g treated as above. FIG. 11B) Analysis and quantification of TFEB nuclear translocation in TOV1946 stably expressing GFP conjugated TFEB and treated with Itra 5 μM (5) +/−CQ 10 μM (CQ10).
# Member of the microphtalmia (MiT) family (TFEB, […], TFE3) are transcription factors activated in starvation or lysosomal dysfunction conditions. Once activated, they translocate to the nucleus where they promote the expression of a network of genes related to lysosomal function and biogenesis^50.
intratumor concentration (highest) [1],estimated tissue concentration [1] [µM],detection in tumour biopsies [1],SMILES,sensitivity of cell lines to itraconazole when treated with the agent [2],other results
0.745 ng/mg of tissue,≤ 1,detectable in all patients,"CCC(C)n1ncn(-c2ccc(N3CCN(c4ccc(OCC5COC(Cn6cncn6)(c6ccc(Cl)cc6Cl)O5)cc4)CC3)cc2)c1=O (stereo not shown) [Itra, Itraconazole]",–,–
–,–,–,CO/C1=C\C(C)=C\[C@@H](C)[C@@H](O)[C@@H](C)C/C(C)=C/C=C/[C@H](OC)[C@@H]([C@@H](C)[C@@H](O)[C@H](C)[C@@]2(O)C[C@@H](O)[C@H](C)[C@@H](C(C)C)O2)OC1=O [Bafilomycin A],increased sensitivity to itraconazole,effect of Itra combined with lysosome targeting agent ([2]; data not shown): combined effect
3.5 ng/mg of tissue,5 to 10,detectable in all patients,"CCN(CCO)CCCC(C)Nc1ccnc2cc(Cl)ccc12 (stereo not shown) [HCQ, hydroxychloroquine]",–,–
–,–,–,"CCN(CC)CCCC(C)Nc1ccnc2cc(Cl)ccc12 (stereo not shown) [CQ, chloroquine]",–,"TFEB nuclear translocation, cells [3]: about 50%"
–,–,–,CC/C(=C(\c1ccccc1)c1ccc(OCCN(C)C)cc1)c1ccccc1 [tamoxifen],increased sensitivity to itraconazole,–
